Experiments:
SKOV3 cells [1] = experiment: Image analysis of treated SKOV3 cells: mitotic index and interphase phenotype distance from control; format: cell-based; details: for Impact on mitotic index / Impact on interphase features (combined distance from normal interphase phenotype): FIG. 5A, multiple concentrations; for Impact on mitotic index: 40 uM maximum; for Impact on interphase features (combined distance from normal interphase phenotype): 40 uM maximum (Taxol 0.8 uM maximum)
Description: In one specific example, a particular group of cellular features for characterizing the interphase phenotype of a cell could include, for all cells that are not mitotic: • the average size of cell nuclei; • the average elliptical axis ratio for nuclei; • the average kurtosis intensity of cells; • the average pixel intensity for Golgi apparatus in cells; • the average cell area; • the elliptical axis ratio for cells; • the form factor (area divided by perimeter) for cells; • the kurtosis of the intensity of tubulin; • the second moment of a cell; • the average total intensity of tubulin for each cell; • the proportion of branched (i.e. having projections) cells.
In one embodiment, after each cellular feature has been characterized, and similarly for the control group cellular features, a distance in multivariate space may be calculated. This can be the distance from a normal interphase phenotype as presented in the horizontal axis of FIG. 5A (described below). For the purposes of simplicity of discussion, if it is assumed that there are only three cellular features (a, b, c) comprising the interphase phenotype signature, and where the subscript ‘t’ refers to a feature of a treated cell and the subscript ‘c’ refers to a feature of a control cell, then the distance (L1) in multivariate space between the interphase signature of the treated cells and interphase signature of the control cells can be calculated as L1=|at−ac|+|bt−bc|+|ct−cc|, which provides the interphase metric.
FIG. 5A presents data showing that certain compounds producing the rice phenotype have very little effect on phenotypic features of interphase cells. In FIG. 5A, the vertical axis presents mitotic index, which is a measure of a compound's ability to cause mitotic arrest (thereby its ability to have a profound effect on the phenotype of mitotic cells), and the horizontal axis presents a “combined distance” from a normal interphase phenotype. The combined distance takes into account various features that characterize interphase phenotype, including those described above (i.e., the average size of cell nuclei, the average elliptical axis ratio for nuclei, the average kurtosis intensity of cells, etc.) Greater values on the horizontal axis indicate greater deviations from a control phenotype for interphase cells.
FIG. 5B is a profile graph showing that the interphase cells treated with rice compounds track interphase control cells for various interphase phenotypic features. These features include, as shown on the horizontal axis, the relative number of objects (putative cells), the average area occupied by DNA in the objects (presumably nuclei), the average axes ratio of the DNA regions in the objects, the average kurtosis of the Golgi regions, the mean intensity of the Golgi regions, average area encompassed by tubulin in the objects, the average axes ratio of tubulin in the objects, the average kurtosis of the tubulin regions, the average form factor of the tubulin regions, the average moment of the tubulin regions, the average total intensity of tubulin in each object, and the branching properties of the tubulin in the objects. Note that the cells used to generate this graph were treated with markers for Golgi (LC for labeled LC Lectin), DNA (HO for Hoechst stain), and tubulin (DM for labeled DM1-α). As shown, the rice features closely track those of the DMSO treated cells and diverge strongly from the interphase cells of Taxol treated cells.
The data of FIG. 5B were obtained by treating SKOV3 cells with many different compounds and then capturing the interphase characteristics shown in the horizontal axis using image analysis techniques. The concentration of each compound was chosen by determining what concentration of a compound produced a mitotic index between 14 and 17% after cells were treated at multiple concentrations and then imaged to capture Golgi, tubulin, and DNA data for the interphase features shown in FIG. 5B. […]

DU145 cells = experiment: Cell line specificity: mitotic index, number of objects and rice phenotype in DU145 cells; format: cell-based
Description: (§1) But it is apparently immune to all anti-mitotic agents.
(§2) As shown, the discrepancy exists over a wide range of concentrations. The two effects depicted in FIG. 7A are number of objects (a measure of the compound's cell killing strength) and mitotic index (fraction of the cells in a population that are in the mitotic phase).
FIG. 7B compares phenotypes of DU145 cells that were treated with 4-(3-Bromo-4-hydroxy-5-methoxy-phenyl)-6-methyl-2-oxo-1,2,3,4-tetrahydro-pyrimidine-5-carboxylic acid 1,2,2-trimethyl-propyl ester (top panel) to phenotypes of DU145 cells that were treated with a different compound (bottom panel). […] Note that the other compound produces a phenotype bearing some resemblance to the rice phenotype in SKOV3 cells. Specifically, it produces mitotic spindles that are somewhat elongated. […] This was not observed with the other compound.

A549 cells = experiment: Cell line specificity: mitotic index, number of objects and rice phenotype in A549 cells; format: cell-based, human; details: wide range of concentrations, FIG. 7A
Description: as §1, §2

SKOV3 cells [2] = experiment: Image analysis of treated SKOV3 cells: mitotic index and interphase phenotype distance from control; format: cell-based
SKOV3 cells [3] = experiment: Mitotic spindle length in tubulin marker images of SKOV3 cells; format: cell-based
Description: In accordance with this invention, the length of a bipolar mitotic spindle may be measured as the separation distance between the spindle poles. To make such measurement, mitotic spindles are observed by a suitable technique such as one that employs a marker for a specific component of the spindle. For example, the technique may involve treating cells with a marker for tubulin and then imaging them under conditions that illuminate such marker. This facilitates automated identification of the mitotic spindle and measurement of its length using image analysis algorithms. […]
The data in this table was obtained for SKOV3 cells (ovarian cancer cell line) treated with DMSO (control) and a compound that produces the rice phenotype. […] In the table, “n” is the number of cells that were analyzed to generate a mean length in micrometers as indicated and associated standard deviation. Spindle lengths were measured manually in this example.
Manual measurements were taken from one image each of DMSO, rice compound 4-(3-Bromo-4-hydroxy-5-methoxy-phenyl)-6-methyl-2-oxo-1,2,3,4-tetrahydro-pyrimidine-5-carboxylic acid 1,2,2-trimethyl-propyl ester at 40 uM, and a mitotic kinesin inhibitor at 40 uM using MetaMorph Imaging Software. Lines were drawn between what was manually determined to be the ends of the mitotic spindle. […]

60 cell lines = details: NCI panel data; cited from earlier work
[4] = wide range of concentrations, FIG. 7A
[5] = SK0V3 cell line, wide range of concentrations, FIG. 7A

Row | SMILES | Impact on mitotic index (SKOV3 cells [1]) | Impact on interphase features (combined distance from normal interphase phenotype) (SKOV3 cells [1]) | Induction of the rice phenotype (DU145 cells; tubulin staining, FIG. 7B) | Effect on cell number (number of objects) (DU145 cells; [4]) | Effect on mitotic index (DU145 cells; [4]) | Effect on cell number (number of objects) (A549 cells) | Effect on mitotic index (A549 cells) | Effect on cell number (number of objects) (SKOV3 cells [2]; [5]) | Effect on mitotic index (SKOV3 cells [2]; [5]) | Induction of the rice phenotype (SKOV3 cells [2]; SKOV3 cells) | Organization of nuclear DNA in interphase cells compared to control (SKOV3 cells [2]; 40 uM for 24 hours, GFP-Histone, FIG. 6A) | Mitotic spindle length compared to control cells (SKOV3 cells [3]; 40 uM for 24 hours, control 0.4% DMSO, FIG. 2A) | Interphase phenotypic features profile compared to control (SKOV3 cells [1]; FIG. 5B, SKOV3 cells, concentrations inducing approximately 15% mitotic arrest) | Production of elongated metaphase spindles (SKOV3 cells [3]) | Potency differences between cell types (60 cell lines)
1 | COc1cc(C2NC(=O)NC(C)=C2C(=O)OC(C)C(C)(C)C)cc(Br)c1O (centres unmarked) [4-(3-Bromo-4-hydroxy-5-methoxy-phenyl)-6-methyl-2-oxo-1,2,3,4-tetrahydro-pyrimidine-5-carboxylic acid 1,2,2-trimethyl-propyl ester] | significant impact on mitotic index | minimal impact on interphase features | produces a rice phenotype | significant affects | significant affects | limited effect | limited effect | significant affects | significant affects | clearly manifest | – | – | – | – | –
2 | COc1cc(C2NC(=O)N(C)C(C)=C2C(=O)OC2CCCC2)cc(Br)c1O (centres unmarked) [4-(3-Bromo-4-hydroxy-5-methoxy-phenyl)-1,6-dimethyl-2-oxo-1,2,3,4-tetrahydro-pyrimidine-5-carboxylic acid cyclopentyl ester] | significant impact on mitotic index | minimal impact on interphase features | – | – | – | – | – | – | – | – | similarly organized in rice interphase cells as it is in normal interphase cells | significantly longer than spindles in normal cells | – | – | –
3 | CC(=O)O[C@H]1C(=O)[C@@]2(C)[C@H]([C@H](OC(=O)c3ccccc3)[C@]3(O)C[C@H](OC(=O)[C@H](O)[C@@H](NC(=O)c4ccccc4)c4ccccc4)C(C)=C1C3(C)C)[C@]1(OC(C)=O)CO[C@@H]1C[C@@H]2O [Taxol, reference compound] | – | widely separated from the control interphase phenotype | – | – | – | robust response | robust response | – | – | – | – | – | vary to a greater degree | do not produce elongated metaphase spindles | over 3 orders of magnitude

Source: patent US20050282208A1, “Cellular phenotype” (Cytokinetics, Inc., priority 2004, published 2005)
